The text below walks through data of patent US10501482B2, “Compounds for treating spinal muscular atrophy” (Hoffmann-La Roche Inc., priority 2013, dated 2019).

One assay concerns SMN protein. As to the kind of experiment: SMN protein assay (HTRF) in cultured SMA patient fibroblast cells. Type of assay: cell-based. Particulars: SMA Type 1 human fibroblasts GM03813, 48 hours; for EC1.5x SMN protein (EC1.5x concentration for SMN protein expression): 7-point concentration curve, concentration giving 1.5 times SMN protein vs vehicle; for max. fold increase (maximum fold increase of SMN protein): 7-point concentration data, fold vs vehicle control. The method, then:
The SMN HTRF (homogeneous time resolved fluorescence) assay is used to quantify the level of SMN protein in SMA patient fibroblast cells treated with test compounds.
Cells are thawed and cultured in DMEM-10% FBS for 72 hours. Cells are trypsinized, counted and re-suspended to a concentration of 25,000 cells/mL in DMEM-10% FBS. The cell suspensions are plated at 5,000 cells per well in a 96 well microtiter plate and incubated for 3 to 5 hours. […] 1 μL of test compound solution is transferred to cell-containing wells and cells are incubated for 48 hours in a cell culture incubator (37° C., 5% CO2, 100% relative humidity). Triplicate samples are set up for each test compound concentration. After 48 hours, the supernatant is removed from the wells and 25 μL of the RIPA lysis buffer, containing protease inhibitors, is added to the wells and incubated with shaking at room temperature for 1 hour. 25 μL of the diluent is added and then 35 μL of the resulting lysate is transferred to a 384-well plate, where each well contains 5 μL of the antibody solution (1:100 dilution of anti-SMN d2 and anti-SMN kryptate in SMN reconstitution buffer). The plate is centrifuged for 1 minute to bring the solution to the bottom of the wells, then incubated overnight at room temperature. Fluorescence for each well of the plate at 665 nm and 620 nm is measured on an EnVision multilabel plate reader (Perkin-Elmer).
The normalized fluorescence signal is calculated for each sample, Blank and vehicle control well by dividing the signal at 665 nm by the signal at 620 nm. Normalizing the signal accounts for possible fluorescence quenching due to the matrix effect of the lysate. The ΔF value (a measurement of SMN protein abundance as a percent value) for each sample well is calculated by subtracting the normalized average fluorescence for the Blank control wells from the normalized fluorescence for each sample well, then dividing this difference by the normalized average fluorescence for the Blank control wells and multiplying the resulting value by 100. The ΔF value for each sample well represents the SMN protein abundance from test compound-treated samples. The ΔF value for each sample well is divided by the ΔF value for the vehicle control wells to calculate the fold increase in SMN protein abundance relative to the vehicle control. Table 3 provides EC1.5x concentrations for SMN protein expression that was obtained from the 7-point concentration data generated according to the above procedure for particular compounds of the present invention.
Table 4 provides the maximum fold increase of SMN protein that was obtained from the 7-point concentration data generated according to the above procedure for particular compounds of the present invention
On the technique in general: TR-FRET usually uses a lanthanide donor and a delayed reading to cut background.

For assay [1], the system named is full length SMN2 minigene mRNA (FL SMN2mini) in HEK293H cells stably transfected with the SMN2-A minigene construct. Description: SMN2 minigene mRNA splicing RT-qPCR assay in cultured cells. The note with it: Homo sapiens, HEK293-H, 24 hours, 7-point concentration curve, concentration giving 1.5-fold FL SMN2mini mRNA vs vehicle, read-out: EC1.5x minigene (EC1.5x concentration for production of full length SMN2 minigene mRNA). Type of assay: cell-based. The method, then:
The reverse transcription-quantitative PCR-based (RT-qPCR) assay is used to quantify the level of the full length SMN2 minigene (referred to herein by the term “FL SMN2mini”) mRNA containing SMN2 exon 7 in a HEK293H cell line stably transfected with said minigene and treated with a test compound.
The SMN2-A minigene construct was prepared as described in International Patent Application WO2009/151546A1 page 145 paragraph [00400] to page 147 paragraph [00412](incl. FIG. 1 and FIG. 3 therein).
HEK293H cells stably transfected with the SMN2-A minigene construct (10,000 cells/well) are seeded in 200 μL of cell culture medium (DMEM plus 10% FBS, with 200 μg/mL hygromycin) in 96-well flat-bottom plates and the plate is immediately swirled to ensure proper dispersal of cells and the formation of an even monolayer of cells. Cells are allowed to attach for 6 hours. […] A solution of test compound (1 μL, 200× in DMSO) is added to each cell-containing well and the plate is incubated for 24 hours in a cell culture incubator (37° C., 5% CO2, 100% relative humidity). 2 replicates are prepared for each test compound concentration. The cells are then lysed in the Cells-To-Ct lysis buffer and the lysate is stored at −80° C.
Full length SMN2-A minigene and GAPDH mRNA are quantified using the primers and probes referenced in Table 1. Primer SMN Forward A (SEQ ID NO.1) hybridizes to a nucleotide sequence in exon 7 (nucleotide 22 to nucleotide 40), primer SMN Reverse A (SEQ ID NO.2) hybridizes to a nucleotide sequence in the coding sequence of Firefly luciferase, SMN Probe A (SEQ ID NO.3) hybridizes to a nucleotide sequence in exon 7 (nucleotide 50 to nucleotide 54) and exon 8 (nucleotide 1 to nucleotide 21). The combination of these three oligonucleotides detects only SMN1 or SMN2 minigenes (RT-qPCR) and will not detect endogenous SMN1 or SMN2 genes.
The SMN forward and reverse primers are used at final concentrations of 0.4 μM. The SMN probe is used at a final concentration of 0.15 μM. The GAPDH primers are used at final concentrations of 0.2 μM and the probe at 0.15 μM.
The SMN2-minigene GAPDH mix (15 μL total volume) is prepared by combining 7.5 μL of 2×RT-PCR buffer, 0.4 μL of 25×RT-PCR enzyme mix, 0.75 μL of 20×GAPDH primer-probe mix, 4.0075 μL of water, 2 μL of 10-fold diluted cell lysate, 0.06 μL of 100 μM SMN forward primer, 0.06 μL of 100 μM SMN reverse primer, and 0.225 μL of 100 μM SMN probe.
PCR is carried out at the following temperatures for the indicated time: Step 1: 48° C. (15 min); Step 2: 95° C. (10 min); Step 3: 95° C. (15 sec); Step 4: 60° C. (1 min); then repeat Steps 3 and 4 for a total of 40 cycles.
Each reaction mixture contains both SMN2-A minigene and GAPDH primers/probe sets (multiplex design), allowing simultaneous measurement of the levels of two transcripts.
The increase in the abundance of the FL SMN2mini mRNA relative to that in cells treated with vehicle control is determined from real-time PCR data using a modified ΔΔCt method (as described in Livak and Schmittgen, Methods, 2001, 25:402-8). The amplification efficiency E is calculated from the slope of the amplification curve for FL SMN2mini and GAPDH individually. The abundance of FL SMN2mini and GAPDH mRNA are then calculated as (1+E)^−Ct, where Ct is the threshold value for each amplicon. The abundance of FL SMN2mini mRNA is normalized to GAPDH mRNA abundance. The normalized FL SMN2mini mRNA abundance from test compound-treated samples is then divided by normalized FL SMN2mini mRNA abundance from vehicle-treated cells to determine the level of FL SMN2mini mRNA relative to vehicle control.
Table 2 provides EC1.5x concentrations for production of full length SMN2 minigene mRNA that was obtained from the 7-point concentration data generated according to the above procedure for particular compounds of the present invention.
Background: In qPCR the cycle at which signal appears reflects the starting amount.

Molecules are shown by their SMILES. Counter-ions that a name gives are not always drawn.

As to `Cc1cn2cc(NC(=O)c3cnc(N4CCNC(C)C4)c(F)c3)cc(Cl)c2n1` (racemic) [Example 53, rac-N-(8-chloro-2-methylimidazo-[1,2-a]pyridin-6-yl)-5-fluoro-6-(3-methylpiperazin-1-yl)nicotinamide hydrochloride], in the assay with SMN protein, the “EC1.5x SMN protein (EC1.5x concentration for SMN protein expression)” value (shortened to “EC1.5x SMN protein”) is 0.7455 µM and the “max. fold increase (maximum fold increase of SMN protein)” value (shortened to “max. fold increase”) turned out to be 1.6563. Further, the EC (1.5-fold) in assay [1] was 0.21 µM.
Regarding `Cc1cn2cc(NC(=O)c3ccc(N4CCNCC4)cc3F)ccc2n1` [Example 44, 2-fluoro-N-(2-methylimidazo[1,2-a]pyridin-6-yl)-4-(piperazin-1-yl)-benzamidehydro-chloride], in the assay on SMN protein, the “EC1.5x SMN protein” value worked out at 0.13 µM and the “max. fold increase” value is listed as 1.8243. Further, the EC (1.5-fold) in assay [1] was found to be 0.0648 µM.
Regarding `Cc1cn2cc(NC(=O)c3ccc(C4=CCNCC4)nc3)cc(F)c2n1` [Example 62, N-(8-fluoro-2-methylimidazo[1,2-a]pyridin-6-yl)-6-(1,2,3,6-tetra-hydropyridin-4-yl)nicotinamide dihydrochloride], in the assay on SMN protein, the “max. fold increase” value was determined as 1.5583. Further, the EC (1.5-fold) in assay [1] was found to be 0.0136 µM.
Consider `Cc1nc2c(F)cc(NC(=O)c3ccc(N4CCNCC4)nc3)cc2o1` [Example 26, N-(4-Fluoro-2-methylbenzo-oxazol-6-yl)-6-piperazin-1-yl-nicotinamide], for which, in the assay with SMN protein, the “EC1.5x SMN protein” value turned out to be 0.2853 µM and the “max. fold increase” value came to 1.8316. Besides, in assay [1], the EC (1.5-fold) was 0.0445 µM.
For `Cc1cn2cc(NC(=O)c3ccc(N4CCN5CCC[C@H]5C4)cc3F)cc(C(F)(F)F)c2n1` [Example 35, (S)-2-fluoro-4-(hexahydro-pyrrolo[1,2-a]-pyrazin-2(1H)-yl)-N-(2-methyl-8-(trifluoro-methyl)imidazo-[1,2-a]pyridin-6-yl]benzamide], in that order: 1.2664 µM, 1.6275 and 0.202 µM.
Taken in the same sequence, the figures for `Cc1nc2c(F)cc(NC(=O)c3ccc(N4CCNC(C)C4)nc3)cc2o1` (racemic) [Example 27, rac-N-(4-Fluoro-2-methylbenzo-oxazol-6-yl)-6-(3-methylpiperazin-1-yl)nicotinamide] were 0.3964 µM, 1.6617 and 0.0989 µM.
For `Cc1cn2cc(NC(=O)c3ccc(C4=CCNCC4)cc3F)ccc2n1` [Example 60, 2-fluoro-N-(2-methylimidazo[1,2-a]pyridin-6-yl)-4-(1,2,3,6-tetrahydro-pyridin-4-yl)-benzamide hydrochloride], in that order: 0.107 µM, 1.7375 and 0.0428 µM.
In the case of `Cc1cn2cc(NC(=O)c3ncc(N4CCNC(C)C4)cc3F)cc(Cl)c2n1` (racemic) [Example 56, rac-N-(8-chloro-2-methylimidazo[1,2-a]pyridin-6-yl)-3-fluoro-5-(3-methyl-piperazin-1-yl)-picolinamide dihydrochloride], in the assay on SMN protein, the “EC1.5x SMN protein” value was 0.07 µM and the “max. fold increase” value is listed as 1.7299. Further, the EC (1.5-fold) in assay [1] is 0.017 µM.
With `Cc1nc2c(F)cc(NC(=O)c3ccc(N4CCN5CCC[C@H]5C4)nc3)cc2o1` [Example 25, (S)-N-(4-fluoro-2-methylbenzo[d]oxa-zol-6-yl)-6-(hexa-hydropyrrolo[1,2-a]pyrazin-2-(1H)-yl)nicotinamide], in the assay on SMN protein, the “EC1.5x SMN protein” value amounted to 0.5694 µM and the “max. fold increase” value was determined as 1.6652. The EC (1.5-fold) in assay [1] is 0.382 µM.
On to `Cc1cn2cc(NC(=O)c3ccc(N4CCN5CCC[C@H]5C4)nc3)cc(C(F)(F)F)c2n1` [Example 21, (S)-6-(hexahydro-pyrrolo[1,2-a]-pyrazin-2(1H)-yl)-N-(2-methyl-8-(trifluoromethyl)-imidazo[1,2-a]-pyridin-6-yl)-nicotinarnide], for which, in the assay on SMN protein, the “EC1.5x SMN protein” value was determined as 0.6542 µM and the “max. fold increase” value came out at 1.7755. For the same compound, in assay [1], the EC (1.5-fold) stood at 0.386 µM.
For `Cc1cn2cc(NC(=O)c3ccc(N4CCNCC4)cc3F)cc(F)c2n1` [Example 40, 2-fluoro-N-(8-fluoro-2-methyl-imidazo[1,2-a]-pyridin-6-yl)-4-(piperazin-1-yl)benzamide dihydrochloride], in that order: 0.0276 µM, 1.7607 and 0.0108 µM.
Taken in the same sequence, the figures for `Cc1cn2cc(NC(=O)c3ccc(N4CCNC(C)C4)nc3)cc(C(F)(F)F)c2n1` (racemic) [Example 20, rac-N-(2-methyl-8-(trifluoromethyl)-imidazo[1,2-a]-pyridin-6-yl)-6-(3-methyl-piperazin-1-yl)-nicotinamide] were 0.8065 µM, 1.7789 and 0.489 µM.
